Reference: US10179777B2, “3-(1H-benzimidazol-2-yl)-1H-pyridin-2-one derivatives” (MERCK PATENT GMBH, priority 2015, dated 2019)

Columns and labels:
[1] = target: T1, ALK2 (GST-modified kinase domain ACVR1(145-509)) (Homo sapiens, UniProt Q04771); assay: ALK2 kinase inhibition assay (33P-ATP filter binding, Reaction Biology); type: biochemical; conditions: casein substrate, 20 μM ATP (Km ATP), 120 min ambient temperature
T1 construct: N-terminally GST-modified kinase domain ACVR1(145-509); GST (N)
T1 sequence (Q04771 145-509): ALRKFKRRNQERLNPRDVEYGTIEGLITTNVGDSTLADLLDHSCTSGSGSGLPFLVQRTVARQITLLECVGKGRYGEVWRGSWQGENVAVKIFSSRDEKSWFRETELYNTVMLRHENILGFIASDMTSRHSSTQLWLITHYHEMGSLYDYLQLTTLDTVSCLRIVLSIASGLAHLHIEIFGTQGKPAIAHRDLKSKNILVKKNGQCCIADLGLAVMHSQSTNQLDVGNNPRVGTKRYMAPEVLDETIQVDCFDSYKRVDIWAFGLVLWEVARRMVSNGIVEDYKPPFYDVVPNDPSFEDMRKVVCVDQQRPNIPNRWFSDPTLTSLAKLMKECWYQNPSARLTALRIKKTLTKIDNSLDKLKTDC
Description: (§1) The protein sequences of the kinases targeted and accompanying information are described in publically available data base http://www.uniprot.org/uniprot/for ALK1 www.uniprot.org/uniprot/P37023, for ALK2 www.uniprot.org/uniprot/Q04771 and for ALK5 www.uniprot.org/uniprot/P36897. IC50 determination of the novel inhibitors described was performed at Reaction Biology Corp., Malvern, Pa., USA, with assay conditions open to public at www.reactionbiology.com/webapps/site/KinaseDetail.aspx?page=Kinases&id=1, and www.reactionbiology.com/webapps/site/Kinase Assay Protocol.aspx. In addition, they were specified previously in Anastassiadis et al. Nat. Biotechnol. 29(11): 1039-1045. doi:10.1038/nbt.2017.
A2) ALK2 Kinase Inhibition Assay
(§2) was performed similar to procedure A1 with N-terminally GST-modified kinase domain ACVR1(145-509) and 1 mg/ml Casein as substrate in reaction buffer of 20 mM HEPES pH 7.5, 10 mM MgCl2, 1 mM EGTA, 0.02% Brij, 0.02 mg/ml BSA, 0.1 mM Na3VO4, 2 mM DTT, 1% DMSO. […] Reactions were carried out at ambient temperature for 120 min, followed by spotting of the reactions onto P81 ion exchange filter paper (Whatman Inc., Picataway, N.J., USA). Unbound phosphate was removed by extensive washing of filters in 0.75% phosphoric acid. After subtraction of background derived from control reactions without enzyme activity, kinase activity data was expressed as the percent remaining kinase activity in test samples compared to vehicle (DMSO) reactions. IC50 values and curve fits were obtained using Prism (GraphPad Software).

[2] = target: T2, ALK1 (GST-modified kinase domain ACVRL1 (139-503)) (Homo sapiens, UniProt P37023); assay: ALK1 kinase inhibition assay (33P-ATP filter binding, Reaction Biology); type: biochemical; conditions: casein substrate, 100 μM ATP (Km ATP), 120 min ambient temperature
T2 construct: N-terminally GST-modified kinase domain ACVRL1 (139-503); GST (N)
T2 sequence (P37023 139-503): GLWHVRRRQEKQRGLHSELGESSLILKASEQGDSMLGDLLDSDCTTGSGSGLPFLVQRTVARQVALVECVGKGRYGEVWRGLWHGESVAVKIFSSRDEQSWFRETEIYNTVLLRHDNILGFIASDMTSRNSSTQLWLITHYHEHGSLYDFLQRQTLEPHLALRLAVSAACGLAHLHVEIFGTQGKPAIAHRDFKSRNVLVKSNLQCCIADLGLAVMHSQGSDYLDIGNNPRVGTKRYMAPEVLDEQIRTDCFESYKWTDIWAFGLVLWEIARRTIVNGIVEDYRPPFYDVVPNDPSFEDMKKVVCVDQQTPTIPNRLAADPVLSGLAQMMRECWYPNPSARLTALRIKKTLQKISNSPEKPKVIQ
Description: as §1
A1) ALK1 Kinase Inhibition Assay
as §2, with “performed” for “performed similar to procedure A1”, “domain ACVRL1 (139-503)” for “domain ACVR1(145-509)”, “and 20” for “and 1”

[3] = tested on: ALK1-mediated SMAD1/5 phosphorylation in HUVEC cells; assay: Cell-based immunofluorescence assay for ALK1-mediated SMAD1/5 phosphorylation in HUVEC cells; conditions: Homo sapiens, 1.5 ng/ml BMP-9 with compound for 2 h, % nuclei with pSMAD1/5 signal, read-out: Smad 1/5 IC50
Description: In vitro cell-based Immunofluorescence-Assay for identification of inhibitors of ALK1-mediated SMAD1/5 phosphorylation in HUVEC cells:
ALK1 is a type I cell-surface receptor for the TGF-β superfamily of ligands. In adults ALK1 is mainly expressed on activated endothelial cells, e.g. during wound healing or in tumor angiogenesis. BMP9 and BMP10 are high affinity ligands for ALK1.
BMP9 and BMP10 binding leads to the phosphorylation of so-called Smad1 at Ser463 and Ser465 in the carboxy-terminal motif SSXS, as well as Smad5 and Smad8 at their corresponding sites. These phosphorylated Smads dimerize with the coactivating Smad4 and translocate to the nucleus, where they stimulate transcription of target genes.
Primary endothelial cells (HUVEC: Human Umbilical Vein Endothelial Cells; supplier Promocell) are cultivated in the culture medium obtained from Promocell (with supplements corresponding to 5% FCS) for maximum 5 passages, seeded into black 384-well culture plates with clear bottom (3000 cells/well/30 μl), and incubated for 16-24 hours at 37° C., 5% CO2 and 90% rH.
The following day cells were serum-starved for 2-3 h in order to stop TGF-ß-mediated signalling derived from ligands present in FBS. 1.5 ng/ml BMP-9 was than added in parallel with test compounds for 2 h at 37° C., 5% CO2 in order to identify compounds which block functional activity of ALK1 leading to phosphorylation and nuclear translocation of SMAD1/5/8.
After fixation (15 min 4% Formaldehyd in PBS) and permeabilization (10 min 0.2% Triton X-100 in PBS) an indirect immunocytochemical staining is performed with a specific Phospho-Smad1/5 (Ser463/465) antibody (Cell Signaling #9516) and Alexa488-labelled secondary anti-rabbit-IgG-antibody. DNA staining with Propidium Iodide allowed parallel cell counting. Image acquisition and analysis was performed on an MDS ImageXpress Ultra confocal High Content Reader using the image analysis software MetaXpress. Final read-out were % nuclei with a pSMAD1/5 signal above a defined background.
The final DMSO concentration in the assay was 0.5%. DMSO-treated HUVEC cells served as neutral control (=0%) and cells treated with 10 μM of a reference inhibitor described in a patent served as inhibitor control (=−100%). Raw data were normalised to the neutral and inhibitory references. The assay was performed as dose response (10 compound dilutions, 1 nM-30 μM).

| Compound | IC50 [1] [µM] | IC50 [2] [µM] | IC50 [3] [µM] |
| --- | --- | --- | --- |
| O=c1[nH]cc(-c2ccnc3ccccc23)cc1-c1nc2ccccc2[nH]1 [Compound A2, 3-(1H-Benzimidazol-2-yl)-5-quinolin-4-yl-1H-pyridin-2-one] | 0.63 | 1.4 | – |
| O=c1[nH]cc(-c2ccncc2)cc1-c1nc2ccc(Cl)cc2[nH]1 [Compound A3, 5-(5-Chloro-1H-benzimidazol-2-yl)-1H-[3,4′]bipyridinyl-6-one] | – | 8.9 | – |
| Cc1ccc2nc(-c3cc(-c4ccncc4)c[nH]c3=O)[nH]c2c1 [Compound A4, 5-(5-Methyl-1H-benzimidazol-2-yl)-1H-[3,4′]bipyridinyl-6-one] | 5.4 | 9.2 | – |
| Cc1cccc2[nH]c(-c3cc(-c4ccncc4)c[nH]c3=O)nc12 [Compound A5, 5-(4-Methyl-1H-benzimidazol-2-yl)-1H-[3,4′]bipyridinyl-6-one] | 5.7 | 10 | – |
| O=c1[nH]cc(-c2ccnc3ccccc23)cc1-c1nc2cc(N3CCOCC3)ccc2[nH]1 [Compound A9, 3-(6-Morpholin-4-yl-1H-benzimidazol-2-yl)-5-quinolin-4-yl-1H-pyridin-2-one] | – | – | 5.7 |
| O=c1[nH]cc(-c2ccnc3ccccc23)cc1-c1nc2cc(Oc3ccncc3)ccc2[nH]1 [Compound A10, 3-[5-(Pyridin-4-yloxy)-1H-benzimidazol-2-yl]-5-quinolin-4-yl-1H-pyridin-2-one] | 0.43 | 0.95 | – |
| O=c1[nH]cc(-c2cc(CO)ccc2Cl)cc1-c1nc2cc(N3CCOCC3)ccc2[nH]1 [Compound A11, 5-(2-Chloro-5-hydroxymethyl-phenyl)-3-(5-morpholin-4-yl-1H-benzimidazol-2-yl)-1H-pyridin-2-one] | – | – | 6.5 |
| O=c1[nH]cc(-c2ccnc3ccccc23)cc1-c1nc2cc(N3CCNCC3)ccc2[nH]1 [Compound A14, 3-(6-Piperazin-1-yl-1H-benzimidazol-2-yl)-5-quinolin-4-yl-1H-pyridin-2-one] | – | – | 5.7 |
| O=c1[nH]cc(-c2c[nH]c3ccccc23)cc1-c1nc2cc(N3CCNCC3)ccc2[nH]1 [Compound A15, 5-(1H-Indol-3-yl)-3-(6-piperazin-1-yl-1H-benzimidazol-2-yl)-1H-pyridin-2-one] | – | 3.5 | – |
| O=c1[nH]cc(-c2ccnc3ccoc23)cc1-c1nc2cc(N3CCNCC3)ccc2[nH]1 [Compound A18, 5-Furo[3,2-b]pyridin-7-yl-3-(5-piperazin-1-yl-1H-benzimidazol-2-yl)-1H-pyridin-2-one] | – | – | 2 |
| COCc1cccc(-c2c[nH]c(=O)c(-c3nc4cc(N5CCNCC5)ccc4[nH]3)c2)c1 [Compound A19, 5-(3-Methoxymethyl-phenyl)-3-(5-piperazin-1-yl-1H-benzimidazol-2-yl)-1H-pyridin-2-one] | – | – | 11 |
| CN1CCN(c2ccc3[nH]c(-c4cc(-c5ccncc5)c[nH]c4=O)nc3c2)CC1 [Compound A28, 5-[5-(4-Methyl-piperazin-1-yl)-1H-benzimidazol-2-yl]-1H-[3,4′]bipyridinyl-6-one] | 0.099 | – | – |
| CN1CCN(c2ccc3[nH]c(-c4cc(-c5cnn(C)c5)c[nH]c4=O)nc3c2)CC1 [Compound A30, 3-[5-(4-Methyl-piperazin-1-yl)-1H-benzimidazol-2-yl]-5-(1-methyl-1H-pyrazol-4-yl)-1H-pyridin-2-one] | 0.71 | 1.8 | – |
| CN1CCN(c2ccc3[nH]c(-c4cc(-c5cccnc5)c[nH]c4=O)nc3c2)CC1 [Compound A31, 5-[5-(4-Methyl-piperazin-1-yl)-1H-benzimidazol-2-yl]-1H-[3,3′]bipyridinyl-6-one] | 3.4 | 5.5 | – |
| O=c1[nH]cc(-c2ccnc3[nH]ccc23)cc1-c1nc2ccccc2[nH]1 [Compound A39, 3-(1H-Benzimidazol-2-yl)-5-(1H-pyrrolo[2,3-b]pyridin-4-yl)-1H-pyridin-2-one] | 0.12 | 0.19 | – |
| COc1ccc2[nH]c(-c3cc(-c4ccnc5[nH]ccc45)c[nH]c3=O)nc2c1 [Compound A42, 3-(5-Methoxy-1H-benzimidazol-2-yl)-5-(1H-pyrrolo[2,3-b]pyridin-4-yl)-1H-pyridin-2-one] | – | – | 7.9 |
| NCc1ccc2[nH]c(-c3cc(-c4ccncc4)c[nH]c3=O)nc2c1 [Compound A54, 5-(5-Aminomethyl-1H-benzimidazol-2-yl)-1H-[3,4′]bipyridinyl-6-one] | 1.1 | 2.6 | – |
| CC(=O)NCc1ccc2[nH]c(-c3cc(-c4ccncc4)c[nH]c3=O)nc2c1 [Compound A55, N-[2-(6-Oxo-1,6-dihydro-[3,4′]bipyridinyl-5-yl)-1H-benzimidazol-5-ylmethyl]-acetamide] | 3.1 | 6.8 | – |
| CCN(CC)CCNC(=O)c1ccc2nc(-c3cc(-c4ccncc4)c[nH]c3=O)[nH]c2c1 [Compound A57, 2-(6-Oxo-1,6-dihydro-[3,4′]bipyridinyl-5-yl)-3H-benzimidazole-5-carboxylic acid (2-diethylamino-ethyl)-amide] | – | 3.1 | – |
| CN1CCC(NC(=O)c2ccc3[nH]c(-c4cc(-c5ccncc5)c[nH]c4=O)nc3c2)CC1 [Compound A58, 2-(6-Oxo-1,6-dihydro-[3,4′]bipyridinyl-5-yl)-3H-benzimidazole-5-carboxylic acid (1-methyl-piperidin-4-yl)-amide] | 3.1 | 3.3 | – |
